Source: US20090240045A1, “Organic Compounds” (Novartis AG, priority 2006, published 2009)
Where a name gives a salt, the structure may show the parent alone.

Molecular target: adenosine A2A receptor (Homo sapiens, UniProt P29274)
Experiment: Adenosine A2A receptor agonist assay (method of Murphree et al.)
Assay type: binding
Conditions: method described by Murphree et al., Mol Pharmacol, Vol. 61, pp. 455-462 (2002)
Source text: Compounds of formula (I) and their pharmaceutically acceptable salts are useful as pharmaceuticals. In particular, they activate the adenosine A2A receptor, i.e., they act as A2A receptor agonists.

Sequence of adenosine A2A receptor (P29274 whole entry): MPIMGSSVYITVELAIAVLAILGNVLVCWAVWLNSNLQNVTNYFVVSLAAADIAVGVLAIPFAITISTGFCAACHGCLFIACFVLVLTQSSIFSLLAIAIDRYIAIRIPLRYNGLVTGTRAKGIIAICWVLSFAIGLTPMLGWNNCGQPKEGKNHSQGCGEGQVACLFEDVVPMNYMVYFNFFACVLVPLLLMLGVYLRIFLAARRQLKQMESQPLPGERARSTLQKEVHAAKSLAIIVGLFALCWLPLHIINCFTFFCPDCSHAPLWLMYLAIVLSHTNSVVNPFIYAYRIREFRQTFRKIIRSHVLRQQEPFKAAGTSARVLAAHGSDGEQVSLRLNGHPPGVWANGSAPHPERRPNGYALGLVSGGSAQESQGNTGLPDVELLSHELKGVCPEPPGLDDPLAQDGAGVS

Structure (SMILES)	Ki [nM]
O=C(N[C@@H]1CCNC1)N[C@@H]1CCN(c2nc(NCC(c3ccccc3)c3ccccc3)c3ncn([C@@H]4O[C@H](CO)[C@@H](O)[C@H]4O)c3n2)C1 [Example 11, 1-{(R)-1-[9-(2R,3R,4S,5R)-3,4-Dihydroxy-5-hydroxymethyl-tetrahydro-furan-2-yl)-6-(2,2-diphenyl-ethylamino)-9H-purin-2-yl]-pyrrolidin-3-yl}-3-(R)-pyrrolidin-3-yl-urea trifluoroacetate]	12
CCn1nnc([C@H]2O[C@@H](n3cnc4c(NCC(c5ccc(O)cc5)c5ccc(O)cc5)nc(N5CC[C@@H](NC(=O)c6ccc(N7CCOCC7)nc6)C5)nc43)[C@H](O)[C@@H]2O)n1 [Example 77, N-((R)-1-{6-[2,2-bis-(4-Hydroxy-phenyl)-ethylamino]-9-[(2R,3R,4S,5R)-5-(2-ethyl-2H-tetrazol-5-yl)-3,4-dihydroxy-tetrahydro-furan-2-yl]-9H-purin-2-yl}-pyrrolidin-3-yl)-6-morpholin-4-yl-nicotinamide trifluoroacetate]	6
